Measurements as given in patent publication US20220220155A1, “VASCULAR C[…] USE THEREOF” (priority 2019, published 2022).
Where a SMILES comes first, the peptide text is derived from it. [ ]: non-standard residue; d: D form. ξ: configuration not given here. ξD = NC(CC(=O)O)C(=O)O

Columns and labels:
[1] = target: T1, SMase-treated LDL (Homo sapiens, UniProt P04114); assay: Anti-LDL aggregation assay, turbidimetry, aggregation induced by sphingomyelinase (SMase); assay type: biochemical; details: peptide 10 μM (compound/ApoB-100 4.7/1), human LDL 1.44 mg/mL, 40 U/L Bacillus cereus SMase, 18 hours, 37° C., absorbance at 405 nm, Equation I
T1 construct: from tissue; host or cells: pooled normolipemic human plasma
T1 sequence (P04114 28-4563): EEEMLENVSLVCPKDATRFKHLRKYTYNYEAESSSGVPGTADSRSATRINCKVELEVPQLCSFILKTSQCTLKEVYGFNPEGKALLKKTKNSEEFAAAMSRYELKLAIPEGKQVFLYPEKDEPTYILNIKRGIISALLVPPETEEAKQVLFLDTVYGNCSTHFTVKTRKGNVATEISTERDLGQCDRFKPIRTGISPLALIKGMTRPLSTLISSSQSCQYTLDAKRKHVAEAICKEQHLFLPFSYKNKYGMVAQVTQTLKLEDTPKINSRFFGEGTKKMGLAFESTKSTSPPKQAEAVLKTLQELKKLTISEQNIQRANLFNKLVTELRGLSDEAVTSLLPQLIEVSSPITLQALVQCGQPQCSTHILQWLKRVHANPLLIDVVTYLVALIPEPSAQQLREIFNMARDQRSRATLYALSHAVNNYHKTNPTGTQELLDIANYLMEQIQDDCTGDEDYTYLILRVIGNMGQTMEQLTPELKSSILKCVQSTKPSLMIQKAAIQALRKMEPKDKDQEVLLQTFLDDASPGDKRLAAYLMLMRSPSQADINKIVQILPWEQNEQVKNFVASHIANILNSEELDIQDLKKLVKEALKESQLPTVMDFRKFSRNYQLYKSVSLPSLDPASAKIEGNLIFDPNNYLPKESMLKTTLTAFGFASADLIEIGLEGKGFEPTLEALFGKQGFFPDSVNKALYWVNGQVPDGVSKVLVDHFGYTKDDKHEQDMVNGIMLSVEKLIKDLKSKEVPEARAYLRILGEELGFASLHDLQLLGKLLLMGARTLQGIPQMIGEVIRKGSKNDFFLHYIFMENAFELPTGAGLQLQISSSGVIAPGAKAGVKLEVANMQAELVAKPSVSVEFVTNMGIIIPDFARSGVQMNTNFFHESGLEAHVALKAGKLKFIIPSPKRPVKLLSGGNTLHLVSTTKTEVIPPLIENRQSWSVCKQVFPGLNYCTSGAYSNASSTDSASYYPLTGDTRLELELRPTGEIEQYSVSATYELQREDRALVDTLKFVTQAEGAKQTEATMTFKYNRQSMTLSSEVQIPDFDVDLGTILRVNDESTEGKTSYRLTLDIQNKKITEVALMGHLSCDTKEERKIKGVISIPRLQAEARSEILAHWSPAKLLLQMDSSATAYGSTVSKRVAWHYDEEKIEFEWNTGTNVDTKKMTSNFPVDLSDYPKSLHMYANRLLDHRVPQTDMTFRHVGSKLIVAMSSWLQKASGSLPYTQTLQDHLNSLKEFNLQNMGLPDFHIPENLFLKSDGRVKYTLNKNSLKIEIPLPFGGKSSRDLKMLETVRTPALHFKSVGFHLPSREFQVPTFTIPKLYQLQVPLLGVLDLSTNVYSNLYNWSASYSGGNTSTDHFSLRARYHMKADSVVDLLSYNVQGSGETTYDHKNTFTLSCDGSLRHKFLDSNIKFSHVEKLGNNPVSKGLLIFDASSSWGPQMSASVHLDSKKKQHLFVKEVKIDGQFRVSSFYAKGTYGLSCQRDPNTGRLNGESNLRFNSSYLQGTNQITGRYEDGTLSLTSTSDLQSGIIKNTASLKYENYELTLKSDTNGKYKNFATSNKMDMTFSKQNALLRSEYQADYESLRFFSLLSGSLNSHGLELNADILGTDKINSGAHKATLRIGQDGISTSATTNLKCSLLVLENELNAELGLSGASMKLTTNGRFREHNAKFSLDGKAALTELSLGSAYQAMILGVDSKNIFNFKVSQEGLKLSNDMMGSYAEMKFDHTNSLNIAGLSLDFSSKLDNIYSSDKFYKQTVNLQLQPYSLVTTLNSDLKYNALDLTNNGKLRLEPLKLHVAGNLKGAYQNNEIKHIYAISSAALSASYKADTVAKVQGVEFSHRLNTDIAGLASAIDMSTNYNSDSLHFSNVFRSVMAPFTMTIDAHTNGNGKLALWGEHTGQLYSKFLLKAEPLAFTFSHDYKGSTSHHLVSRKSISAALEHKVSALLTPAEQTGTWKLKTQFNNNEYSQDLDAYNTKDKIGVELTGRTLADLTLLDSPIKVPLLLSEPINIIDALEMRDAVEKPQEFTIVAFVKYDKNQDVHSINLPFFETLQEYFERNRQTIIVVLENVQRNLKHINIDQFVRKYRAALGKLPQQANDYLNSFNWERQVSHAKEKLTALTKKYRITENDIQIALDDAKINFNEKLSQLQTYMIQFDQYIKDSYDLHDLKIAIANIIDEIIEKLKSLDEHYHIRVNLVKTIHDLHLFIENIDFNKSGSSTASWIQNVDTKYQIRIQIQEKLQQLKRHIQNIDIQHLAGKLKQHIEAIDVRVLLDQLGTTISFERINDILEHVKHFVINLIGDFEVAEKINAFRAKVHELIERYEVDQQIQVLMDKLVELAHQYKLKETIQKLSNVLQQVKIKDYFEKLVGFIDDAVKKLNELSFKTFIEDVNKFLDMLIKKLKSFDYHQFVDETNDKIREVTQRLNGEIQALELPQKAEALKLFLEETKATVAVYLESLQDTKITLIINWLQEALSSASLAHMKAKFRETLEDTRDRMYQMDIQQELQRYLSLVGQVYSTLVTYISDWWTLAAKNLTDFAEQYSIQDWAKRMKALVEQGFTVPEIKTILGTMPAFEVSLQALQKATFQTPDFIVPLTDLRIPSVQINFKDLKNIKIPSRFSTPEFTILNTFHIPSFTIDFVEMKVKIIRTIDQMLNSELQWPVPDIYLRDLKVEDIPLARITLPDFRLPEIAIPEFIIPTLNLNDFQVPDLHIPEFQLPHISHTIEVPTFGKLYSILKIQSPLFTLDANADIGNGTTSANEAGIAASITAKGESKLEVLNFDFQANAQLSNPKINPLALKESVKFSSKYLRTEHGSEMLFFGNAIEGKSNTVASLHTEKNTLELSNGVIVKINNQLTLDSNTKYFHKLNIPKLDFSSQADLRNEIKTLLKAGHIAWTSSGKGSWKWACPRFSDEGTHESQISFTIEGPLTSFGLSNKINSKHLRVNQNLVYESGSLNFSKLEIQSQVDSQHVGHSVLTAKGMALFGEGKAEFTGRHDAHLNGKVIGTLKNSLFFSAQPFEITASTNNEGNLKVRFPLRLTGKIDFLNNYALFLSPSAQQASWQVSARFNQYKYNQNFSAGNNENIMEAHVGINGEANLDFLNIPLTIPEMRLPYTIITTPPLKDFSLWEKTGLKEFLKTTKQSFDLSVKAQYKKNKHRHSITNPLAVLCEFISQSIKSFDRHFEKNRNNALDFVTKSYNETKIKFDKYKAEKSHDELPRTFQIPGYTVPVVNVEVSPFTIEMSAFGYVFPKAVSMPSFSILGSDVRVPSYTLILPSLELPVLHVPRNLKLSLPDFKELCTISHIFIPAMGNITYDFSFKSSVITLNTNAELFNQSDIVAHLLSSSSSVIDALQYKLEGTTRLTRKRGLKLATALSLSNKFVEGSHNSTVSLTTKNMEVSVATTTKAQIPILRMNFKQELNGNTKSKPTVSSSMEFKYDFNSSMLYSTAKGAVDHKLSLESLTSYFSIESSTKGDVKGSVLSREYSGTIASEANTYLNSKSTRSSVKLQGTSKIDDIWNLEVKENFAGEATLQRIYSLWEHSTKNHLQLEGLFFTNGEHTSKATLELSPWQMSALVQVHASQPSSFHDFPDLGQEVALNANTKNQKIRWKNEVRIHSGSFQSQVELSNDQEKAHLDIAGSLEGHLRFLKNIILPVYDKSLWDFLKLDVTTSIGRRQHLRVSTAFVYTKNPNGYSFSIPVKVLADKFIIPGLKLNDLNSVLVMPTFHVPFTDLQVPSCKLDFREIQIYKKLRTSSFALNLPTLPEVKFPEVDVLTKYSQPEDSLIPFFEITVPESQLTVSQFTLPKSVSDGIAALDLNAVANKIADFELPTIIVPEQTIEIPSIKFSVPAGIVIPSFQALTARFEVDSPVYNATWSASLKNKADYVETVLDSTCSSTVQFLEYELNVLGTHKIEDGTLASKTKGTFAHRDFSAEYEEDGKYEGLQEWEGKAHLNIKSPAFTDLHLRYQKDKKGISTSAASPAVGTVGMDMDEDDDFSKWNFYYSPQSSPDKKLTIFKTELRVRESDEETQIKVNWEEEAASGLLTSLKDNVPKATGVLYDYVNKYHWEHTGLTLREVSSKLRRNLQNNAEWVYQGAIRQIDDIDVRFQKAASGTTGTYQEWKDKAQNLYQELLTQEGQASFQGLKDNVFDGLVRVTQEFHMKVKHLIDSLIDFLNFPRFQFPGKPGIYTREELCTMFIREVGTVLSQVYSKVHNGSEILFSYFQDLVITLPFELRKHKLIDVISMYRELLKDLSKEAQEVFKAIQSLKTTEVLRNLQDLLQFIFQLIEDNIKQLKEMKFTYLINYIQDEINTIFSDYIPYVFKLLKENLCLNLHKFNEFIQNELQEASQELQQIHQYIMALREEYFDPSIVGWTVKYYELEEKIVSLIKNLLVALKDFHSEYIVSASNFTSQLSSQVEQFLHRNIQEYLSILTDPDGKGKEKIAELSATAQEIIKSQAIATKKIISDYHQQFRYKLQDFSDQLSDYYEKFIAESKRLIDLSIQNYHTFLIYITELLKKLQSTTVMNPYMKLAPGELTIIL
Protocol: (§1) The efficacy of the novel compounds to inhibit the aggregation of LDL has been tested in two parallel turbidimetric assays differing from each other only in the enzyme used to induce LDL aggregation, namely sphingomyelinase (SMase) and phospholipase A2 (PLA2), respectively.
(§2) Human LDL (d1.019-d1.063 g/mL) were obtained from pooled normolipemic human plasma by sequential ultracentrifugation in a KBr density gradient. Briefly, VLDL were first discarded after spinning plasma at 36.000 rpm for 18 h at 4° C., VLDL-free plasma was layered with 1.063 g/mL KBr solution and centrifuged at 36,000 rpm for 18 h at 4° C. LDL were dialyzed against 0.02 M Tris, 0.15 M NaCl, 1 mM EDTA, pH 7.5 for 18 hours, and then against normal saline for 2 hours. Finally, isolated LDL were filter-sterilized. Protein concentration was determined using a colorimetric assay.
(§3) Human LDL particles (1.44 mg/mL) were incubated with 40 U/L of Bacillus cereus SMase or with 50 μg/L of type II secretory PLA2 from honey bee venom in 20 mM Tris buffer (pH 7.0) containing 150 mM NaCl, 2 mM CaCl2), and MgCl2 at 37° C. LDL incubation with SMase and PLA2 was performed at peptide concentration of 10 μM (ratio compound/ApoB-100: 4.7/1) for 18 hours. LDL lipolysis was stopped by addition of EDTA (final concentration 10 mM).
(§4) The efficiency of each novel compound to inhibit LDL aggregation induced by SMase and PLA2 was estimated by turbidimetry measuring the absorbance at a wavelength of 405 nm. Thus, the inhibitory activity was calculated according to Equation I.
(§5) a corresponds to the absorbance value in the presence of nLDL particles, LDL aggregating enzyme (i.e., SMase or PLA2) and test compound;
(§6) b corresponds to the absorbance value in the presence of only nLDL particles;
(§7) c corresponds to the absorbance value in the presence of nLDL particles and LDL aggregating enzyme (i.e., SMase or PLA2);

[2] = target: T2, PLA2-treated LDL (Homo sapiens, UniProt P04114); assay: Anti-LDL aggregation assay, turbidimetry, aggregation induced by phospholipase A2 (PLA2); assay type: biochemical; details: 18 h, read-out: Inhibition of LDL aggregation, PLA2-treated LDL
T2 construct: from tissue; host or cells: pooled normolipemic human plasma
T2 sequence (P04114 28-4563): as above
Protocol: as §1, §2, §3, §4, §5, §6, §7

[3] = test system: human coronary vascular smooth muscle cells (hcVSMC); assay: Inhibition of intracellular cholesterol accumulation induced by SMase (CE/FC ratio); assay type: cell-based; details: hcVSMC exposed 2 hours to SMase-LDL treated overnight with peptide 10 μM; CE and FC by thin layer chromatography and densitometry, Equation II
Protocol: Thus, the inhibitory effect of the novel compounds on the intracellular cholesterol accumulation has been analysed in terms of decrease in the ratio of intracellular CE and free cholesterol FC content of hcVSMC exposed to LDL and SMase-LDL.
All cells used were from a unique batch in order to prevent variability from cell origin. Cell quiescence was induced by maintaining the cell culture for 24 hours in a medium. Serum-deprived cells between passages 4 and 8 were used for experiments. VSMCs at these passages appeared as a relatively homogeneous population, showing a hill-and-valley confluence pattern. Cell monolayers were grown in vascular cell basal medium supplemented with vascular smooth muscle growth kit components. Quiescent cells were 2-hours exposed to LDL treated with SMase (in absence or presence of peptides) overnight at a concentration of 10 μM previously checked its aggregation by a turbidimetry test. Cells were then either collected for lipid extraction or processed for confocal microscopy analysis.
Following the lipoprotein incubation period, hcVSMC were exhaustively washed (twice with PBS, twice with PBS supplemented with 1% BSA, and once with PBS supplemented with both 1% BSA and 100 U/mL heparin), before they were harvested into 1 mL of 0.15 M NaOH. Lipids were extracted using the Bligh and Dyer method. The lipid extract was redissolved in dichloromethane, applied to silica gel plates, and separated by thin layer chromatography. A mixture of cholesterol and cholesterol palmitate, were also run as standards. Heptane or a solvent combination of heptane/diethylether/acetic acid (74:21:4, v/v/v) were used as chromatographic mobile phase. After lipid separation, the plates were dried and stained as previously reported. Finally, the spots corresponding to cholesteryl ester (CE) and free cholesterol (FC) were quantitated by densitometry.
The efficacy of each novel compound to decrease the ratio of intracellular cholesteryl esters (CE) and free cholesterol (FC) content of hcVSMC exposed to LDL and SMase-LDL was calculated according to Equation II.
a corresponds to the CE/FC ratio in hcVSMC exposed to SMase-LDL and in the presence of the test compound.
b corresponds to the CE/FC ratio in hcVSMC exposed to nLDL in the absence of the test compound.
c corresponds to the CE/FC ratio in hcVSMC exposed to SMase-LDL in the absence of the test compound.

In the case of `CC(=O)N[C@H](CC(=O)O)C(=O)N[C@H](CO)C(=O)N[C@H](CCC(=O)O)C(=O)N[C@H](CC(=O)O)C(=O)N[C@H](CC(N)=O)C(=O)N[C@H](CO)C(=O)N[C@H](CC(=O)O)C(=O)N[C@H](CCC(=O)O)C(=O)N[C@H](CCC(=O)O)C(=O)N[C@H](CC(N)=O)C(N)=O` [Example 12, Ac-D-Asp-D-Ser-D-Glu-D-Asp-D-Asn-D-Ser-D-Asp-D-Glu-D-Glu-D-Asn-NH2] (Ac-[dD][dS][dE][dD][dN][dS][dD][dE][dE][dN]-NH2), the inhibition at 10 µM [1] is reported as 93.3%, the inhibition at 10 µM [2] is reported as 94.3% and the “CE/FC ratio decrease (%)” value [3] is reported as 76.5%.

`CC(=O)N[C@H](CC(N)=O)C(=O)N[C@H](CC(=O)O)C(=O)N[C@H](CO)C(=O)N[C@H](CCC(=O)O)C(=O)N[C@H](CC(=O)O)C(=O)N[C@H](CC(N)=O)C(=O)N[C@H](CO)C(=O)NC(CC(=O)O)C(=O)N[C@H](CCC(=O)O)C(=O)N[C@H](CCC(=O)O)C(=O)N[C@H](C)C(N)=O` (stereo partly drawn) [Example 14, Ac-D-Asn-D-Asp-D-Ser-D-Glu-D-Asp-D-Asn-D-Ser-D-Asp-D-Glu-D-Glu-D-Ala-NH2] (Ac-[dN][dD][dS][dE][dD][dN][dS][ξD][dE][dE][dA]-NH2) was tested, and the inhibition at 10 µM [1] was 68.3%, the inhibition at 10 µM [2] was 74% and the “CE/FC ratio decrease (%)” value [3] was 62.7%.

For `CC(=O)NCC(=O)N[C@H](CC(=O)O)C(=O)N[C@H](CC(N)=O)C(=O)N[C@H](CC(=O)O)C(=O)N[C@H](CO)C(=O)N[C@H](CCC(=O)O)C(=O)N[C@H](CC(=O)O)C(=O)N[C@H](CC(N)=O)C(=O)N[C@H](CO)C(=O)N[C@H](CC(=O)O)C(=O)N[C@H](CCC(=O)O)C(=O)N[C@H](CCC(=O)O)C(=O)N[C@H](CC(N)=O)C(N)=O` [Example 1, Ac-Gly-D-Asp-D-Asn-D-Asp-D-Ser-D-Glu-D-Asp-D-Asn-D-Ser-D-Asp-D-Glu-D-lu-D-Asn-NH2] (Ac-G[dD][dN][dD][dS][dE][dD][dN][dS][dD][dE][dE][dN]-NH2), the inhibition at 10 µM [1] was 92.5%, the inhibition at 10 µM [2] was 77.5% and the “CE/FC ratio decrease (%)” value [3] was 76.5%.
